Assay results from patent publication US8129514B2, “Nucleotide sequences for regulating gene expression in plant trichomes and constructs and methods utilizing same” (Evogene Ltd., priority 2003, dated 2012).
Marks after values point to notes of the source that are not given here.

How the values were obtained:
PPO [1] = conditions: positive control at 200 mM; PPO harvested from trichome cells; cited from earlier work
PPO [2] = assay: Decrease of PPO activity (browning of supernatant) by antioxidants in ground tomato leaves; type: biochemical, Tomato (L. esculentum); conditions: for Efficient concentration (minimal concentration that enables a decrease of 95% of PPO activity): w/v, 10 mM Tris-HCl pH=8, about 2 hrs at 4° C.
Description: Three compounds were tested: citric acid, ascorbic acid and sodium bisulfite. Different concentrations of chemicals were used to identify the chemical with the highest antioxidant activity. Tomato (L. esculentum) young leaves (about 100 mg) were grinded at 4° C. in 200 μl of 10 mM Tris-HCl pH=8 buffer containing appropriate concentration of antioxidant (0.01-2.0% w/v), incubated for about 2 hrs at 4° C. and centrifuged at 14,000 rpm for 3 min in order to separate leaves-debris and liquid fraction. Decreasing of PPO activity was inspected by eliminating the production of brown color of the supernatant as a result of the oxidation of polyphenols. Table 8 below summarizes the minimal concentration that enables a decrease of 95% of PPO activity.
A buffer without any antioxidant was used as a negative control.

tomato trichome = assay: GUS staining of leaves of T1 tomato plants carrying promoter-GUS constructs; type: in vivo, tomato (Lycopersicon esculentum cv. Micro-Tom)
Description: Tomato transformation—Tomato transformation was carried out according to Fillati et al. (19). Briefly, Lycopersicon esculentum cv. Micro-Tom cotyledons were used for Agrobacterium based plant transformation. The Micro-Tom seeds were surface sterilized for 10 min in a 3% sodium hypochlorite solution. The seeds were washed with DDW three times and soaked for three hours in fresh DDW, then plated into 0.5 L container with Nitsch medium, containing MS salts, 3% sucrose, Nitsch vitamins and 0.8% plant agar (Duchefa, Netherland). The PH was adjusted to 5.8 prior to autoclaving for 20 min at 121° C. 50 seeds where plated on 0.5 L sterilized container containing the germination medium and left at 25° C. in culture room, 16/8 hrs light/dark cycles, under light intensity of (150 μEm^−2S). Seedlings where grown for 8 days.
A. GUS staining—Gus staining of tomato and tobacco plants was effected as previously described (15). Briefly: Leaves were fixed in 90% ice cold acetone for 15-20 minutes (on ice), followed by removal of acetone and a double tissue rinsing with the Working Solution [25 mM Sodium Phosphate (Sigma, USA) buffer pH=7, Ferricyanide (Sigma, USA) 1.25 mM, Ferrocyanide (Sigma, USA) 1.25 mM, Triton X-100 (Sigma, USA) 0.25%, EDTA (BioLab) 0.25 mM] for 15-20 minutes. Rinse solution was removed, replaced with Staining solution [Working solution with 5-bromo-4-chloro-3-indolyl-β-D-glucuronic acid (X-GlcA, Duchefa) solubilized in N,N-Dimethylformamide (BioLab) 1.5 mg/ml and Dithiothreitol (DTT, Bio Lab) 100 mM] and incubated in the dark (tubes wrapped with aluminum foil) over night at 37° C. Distaining was effected by sinking the plant tissue in 70% ethanol and heating at 50° C. for ˜2 hours. The distaining step was repeated until the plant tissue became transparent except the blue stained regions. Distained plants were stored in 70% ethanol (BioLab) at room temperature.
GUS staining was performed on leaves of T1 tomato and tobacco plants transfected with a binary vector including putative trichome specific promoters upstream of a GUS gene. […]

O[C@H](CS)[C@H](O)CS (racemic) [DDT, Dithiothreitol]
PPO activity (PPO [1]): eliminate PPO activity

O=C1O[C@H]([C@@H](O)CO)C(O)=C1O [Ascorbic acid]
Efficient concentration (minimal concentration that enables a decrease of 95% of PPO activity) (PPO [2]): 1.0%*

O=C(O)CC(O)(CC(=O)O)C(=O)O [Citric acid]
Efficient concentration (minimal concentration that enables a decrease of 95% of PPO activity) (PPO [2]): 1.0%

O=S([O-])O.[Na+] [Sodium bisulfite]
PPO activity as indicated by medium browning (PPO [2]; increasing concentrations, FIG. 3): decreased PPO activity
Efficient concentration (minimal concentration that enables a decrease of 95% of PPO activity) (PPO [2]): 0.05%

B1: TR27-P: previously described cotton promoter, G. barbadense var. Pima 15, SEQ ID NO: 39 (nucleic acid)
DNA: AAGCTTTAAGTTTAAATCCTATTGTAGTGTTATTTATAAAAAAAATGAGAAAAGATAAAAATACCTTTATATTAATATTTGTTATATTATAAAATAAGGATATTTTTAACAAATTTTCAATTGAATAGATGTTTGGGTGAATCCTAATACCAATTAAAGTATATATACAGCAAACAATTATAAATCAAATTACTTTTAATAAAATGCTATCATTCAATTCAATGACAATAAATGCATTTATAAATACATCAAATGTAAATCTCATGTTTATAAGAAAACACGTAGAAAAAAAGTTAAACCAATATTTGAGTCCTAGCTGTGGAGGCATGATTGAGTGAAATCAAATGGACGCTGGTTTTAATTCTATTGAAAGAAACCAATAATCACGTAGGTTGGCAGTTGAACATAATTGAATGGTCTCAACTTTTAATGTGGTGTTAATGTTTGGATCGGATAATCTCAACTTACCTAATAGCTAGGAAAGTAAAATTCAAACATCACCCGCTACTACTTTTGGCTATAAAAACCCTCCTACCCTCAAGCCCTAACCACGACAATCACCAATAGTACTACTACTCCAAGCAAGTATTTTCCTTACACGTTTGTTTTTCTTGTGATAATGGATCC
modifications: Gossypium barbadense
Avg grade (tomato trichome; GUS staining, tomato T1 generation, signal peptide: No): 0.4
GUS expression pattern (tomato trichome; GUS under the regulation of the promoter, FIGS. 1d-h): expressed in a trichome-gland specific manner
effectiveness in facilitating expression of heterologous genes in the tomato trichome (tomato trichome; conclusion from Table 6): most effective
